Values of other authors as cited in patent EP4691467A1, “USE OF INHIBITOR SPECIFICALLY TARGETING NLRP3 INFLAMMASOME” (Sichuan Jianlin Pharmaceutical Co., Ltd, priority 2023, dated 2024).

Tests used:
[1] = tested on: ASC specks; settings: cells pre-treated with MCC950, pro-inflammatory conditions
[2] = tested on: IL-18; settings: Muckle Wells syndrome
[3] = phase II clinical trials, rheumatoid arthritis; trials suspended
[4] = tested on: IL-1β
[5] = tested on: experimental autoimmune encephalomyelitis (EAE); settings: in vivo
[6] = tested on: CAPS mouse model

CC(C)(O)c1coc(S(=O)(=O)NC(=O)Nc2c3c(cc4c2CCC4)CCC3)c1 [MCC950]
formation of ASC specks [1]: inhibit | release of IL-18 in plasma [2]: shows efficacy in inhibiting | hepatotoxicity [3]: excessive hepatotoxicity | production of IL-1β in vivo [4]: reduce | severity of disease models of multiple sclerosis (EAE) [5]: attenuate | lethality of newborn mice [6]: reduce | extension of lifespan ([6]; newborn mice): ~20 days
